Reference: paper PMC11070930 (The Biochemical journal, 2024)
Where two headings read alike, the source gives them in different places.

What was measured:
[1] = target: T1, PARP1 (Homo sapiens, UniProt P09874); experiment: PARP1 enzyme inhibition assay; assay type: biochemical; settings: for decrease in PARP1 inhibition potency compared to veliparib: relative to veliparib
[2] = target: T1, PARP1; settings: allosteric-based classification reported earlier; cited from earlier work
[3] = target: T2, PARP1 WT (UniProt P09874 1-1014); experiment: fluorescence polarization
[4] = target: T2, PARP1 WT; experiment: fluorescence polarization; remark: listed apart in the source
[5] = target: T2, PARP1 WT; experiment: fluorescence polarization; remark: listed apart in the source
[6] = target: T2, PARP1 WT; experiment: fluorescence polarization; remark: listed apart in the source
[7] = target: T2, PARP1 WT; experiment: fluorescence polarization; remark: listed apart in the source
[8] = target: T2, PARP1 WT; experiment: fluorescence polarization; remark: listed apart in the source
[9] = target: T2, PARP1 WT; experiment: fluorescence polarization; remark: listed apart in the source
[10] = target: T2, PARP1 WT; experiment: fluorescence polarization; remark: listed apart in the source
[11] = target: T2, PARP1 WT; experiment: fluorescence polarization; remark: listed apart in the source
[12] = target: T2, PARP1 WT; experiment: fluorescence polarization; remark: listed apart in the source
[13] = target: T2, PARP1 WT; experiment: fluorescence polarization; remark: listed apart in the source
[14] = target: T2, PARP1 WT; experiment: fluorescence polarization; remark: listed apart in the source
[15] = target: T2, PARP1 WT; experiment: fluorescence polarization; remark: listed apart in the source
[16] = target: PARP1 Zn1-Zn3 ΔZn2;PARP1 WGR-CAT ΔVE (Homo sapiens?;Homo sapiens?, UniProt P09874;P09874 1-366;518-1014, del97-206|del687-688); experiment: X-ray crystallography
[17] = read-out: PARP1 IC50, 10-point concentration-response curve, average of at least two independent experiments

Molecule: NC(=O)c1cccc2[nH]c(-c3ccc(C(=O)N4CCN(c5ncc(C(=O)O)cn5)CC4)cc3)nc12 [Compound 7, Sodium 2-(4-(4-(4-carbamoyl-1H-benzo[d]imidazol-2-yl)benzoyl)piperazin-1-yl)pyrimidine-5-carboxylate]
- IC50 [1]: > 10 nM
- inhibition at 0.01 µM ([1]; read-out: PARP1 inhibition at 10 nM): 37%

Molecule: NC(=O)c1cccc2[nH]c(-c3ccc(C(=O)N4CCn5c(nnc5C(F)(F)F)C4)cc3)nc12 [Compound 12, 2-(4-(3-(Trifluoromethyl)-5,6,7,8-tetrahydro-[1,2, 4]triazolo[4,3-a]pyrazine-7-carbonyl)phenyl)-1H-benzo[d]imidazole-4-carboxamide]
- IC50 [1, 17]: 25.4 nM

Molecule: Cc1cc(N)c(NC(=O)c2cccc(-c3nc4c(C(N)=O)cccc4[nH]3)c2)cc1C [Compound 14, 2-(3-((2-Amino-4,5-dimethylphenyl)carbamoyl)phenyl)-1H-benzo[d]imidazole-4-carboxamide]
- IC50 [1]: 17.3 nM

Molecule: CNCc1ccc(-c2[nH]c3cc(F)cc4c3c2CCNC4=O)cc1 [rucaparib]
- allosteric PARPi type [2]: Type III

Molecule: Cl.Cl.Nc1ncnc2c1ncn2[C@@H]1O[C@H](C(=O)N2CCN(CC(=O)Nc3cccc4c3CNC4=O)CC2)[C@@H](O)[C@H]1O [EB-47]
- allosteric PARPi type [2]: Type I

Molecule: NC(=O)c1cccc2cn(-c3ccc([C@@H]4CCCNC4)cc3)nc12 [niraparib]
- allosteric PARPi type [2]: Type III

Molecule: NC(=O)c1cccc2[nH]c(-c3cccc(C(=O)N4CCN(c5nc6ccccc6[nH]5)CC4)c3)nc12 [Compound 9, 2-(3-(4-(1H-Benzo[d]imidazol-2-yl)piperazine-1-carbonyl)phenyl)-1H-benzo[d]imidazole-4-carboxamide]
- IC50 [1]: 3.9 nM

Molecule: COC(=O)c1cnc(N2CCN(C(=O)c3ccc(-c4nc5c(C(N)=O)cccc5[nH]4)cc3)CC2)nc1 [UKTT15 (6), Methyl 2-(4-(4-(4-carbamoyl-1H-benzo[d]imidazol-2-yl)benzoyl)piperazin-1-yl)pyrimidine-5-carboxylate]
- IC50 [1]: 2.8 nM
- allosteric PARPi type [2]: Type I

Molecule: C[C@]1(c2nc3c(C(N)=O)cccc3[nH]2)CCCN1 [Veliparib]
- allosteric PARPi type [2]: Type III

Molecule: NC(=O)c1cccc2[nH]c(-c3ccc(C(=O)NCCc4nc5ccccc5[nH]4)cc3)nc12 [Compound 10, 2-(4-((2-(1H-Benzo[d]imidazol-2-yl)ethyl)carbamoyl)phenyl)-1H-benzo[d]imidazole-4-carboxamide]
- IC50 [1]: 3.1 nM

Molecule: NC(=O)c1cccc2[nH]c(-c3ccc(C(=O)N4CCN(c5nc6ccccc6[nH]5)CC4)cc3)nc12 [Compound 8, 2-(4-(4-(1H-Benzo[d]imidazol-2-yl)piperazine-1-carbonyl)phenyl)-1H-benzo[d]imidazole-4-carboxamide]
- IC50 [1]: 6.2 nM

Molecule: NC(=O)c1cccc2[nH]c(-c3cccc(C(=O)NCCc4nc5ccccc5[nH]4)c3)nc12 [Compound 11, 2-(3-((2-(1H-Benzo[d]imidazol-2-yl)ethyl)carbamoyl)phenyl)-1H-benzo[d]imidazole-4-carboxamide]
- IC50 [1]: 121 nM
- decrease in PARP1 inhibition potency compared to veliparib [1]: ~ 100 fold

Molecule: NC(=O)c1cccc2[nH]c(-c3cccc(C(=O)N4CCN(c5ncccn5)CC4)c3)nc12 [Compound 5, 2-(3-(4-(Pyrimidin-2-yl)piperazine-1-carbonyl)phenyl)-1H-benzo[d]imidazole-4-carboxamide]
- IC50 [1]: 8.9 nM

Molecule: NC(=O)c1cccc2[nH]c(-c3ccc(C(=O)N4CCN(c5ncccn5)CC4)cc3)nc12 [Compound 4, 2-(4-(4-(Pyrimidin-2-yl)piperazine-1-carbonyl)phenyl)-1H-benzo[d]imidazole-4-carboxamide]
- IC50 [1]: 11.9 nM
- decrease in PARP1 inhibition potency compared to veliparib [1]: approximately nine

Molecule: NC(=O)c1cccc([C@@H]2O[C@H](COP(=O)(O)OP(=O)(O)OC[C@H]3O[C@@H](n4cnc5c(N)ncnc54)[C@H](O)[C@@H]3O)[C@@H](O)[C@H]2O)c1 [BAD, benzamide adenine dinucleotide]
- allosteric PARPi type [2]: Type I

Molecule: NC(=O)c1cccc2[nH]c(-c3cccc(C(=O)N4CCn5c(nnc5C(F)(F)F)C4)c3)nc12 [Compound 13, 2-(3-(3-(Trifluoromethyl)-5,6,7,8-tetrahydro-[1,2, 4]triazolo[4,3-a]pyrazine-7-carbonyl)phenyl)-1H-benzo[d]imidazole-4-carboxamide]
- IC50 [1, 17]: 25.4 nM

B1: 18-bp DNA duplex (dsDNA)
DNA 1: GGGTTGCGGCCGCTTGGG
DNA 2: CCCAAGCGGCCGCAACCC
- Kd [3]: 41.7 ± 11.4 nM
- Kd [4]: 117 ± 16.8 nM
- Kd [5]: 47.7 ± 5.4 nM
- Kd [6]: 82.1 ± 1.8 nM
- Kd [7]: 4.5 ± 1.7 nM
- Kd [8]: 11.8 ± 4.7 nM
- Kd [9]: 210 ± 25 nM
- Kd [10]: 112 ± 31.2 nM
- Kd [11]: 61.7 ± 25.3 nM
- Kd [12]: 29 ± 5.2 nM
- Kd [13]: 61.9 ± 14.4 nM
- Kd [14]: 62.2 ± 14.6 nM
- Kd [15]: 52.3 ± 3.2 nM

B2: 5-bp DNA duplex (dsDNA)
DNA 1: CGACG
DNA 2: CGTCG
- binding result [16]: binds
